Where two headings read alike, the source gives them in different places.
How the values were obtained:
CYP2D6 = CYP2D6 (Homo sapiens (Human), UniProt P10635); experiment: CYP Inhibition Assay, CYP2D6; assay type: in vitro ADME; settings: human liver microsomes
CYP3A4 = CYP3A4 (Homo sapiens (Human), UniProt P08684); experiment: CYP Inhibition Assay, CYP3A4; assay type: in vitro ADME; settings: human liver microsomes;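 further: CYP probe substrate held near its Km, inhibition judged from metabolite formation quantified by LC-MS/MS against a standard curve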
hERG [1] = target: T1, hERG (Homo sapiens (Human), UniProt Q12809); experiment: hERG screening, IonWorks Quattro (hERG L929 cells); assay type: cell-based; settings: L929 cells expressing hERG; for inhibition at 5 min, 1 uM: read-out: HERG Ionworks % Inhib 1 uM; for inhibition at 5 min, 10 uM: read-out: HERG Ionworks % Inhib 10 uM
CYP2C9 = CYP2C9 (Homo sapiens (Human), UniProt P11712); experiment: CYP Inhibition Assay, CYP2C9; assay type: in vitro ADME; settings: human liver microsomes;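 further: probe substrate held close to its Km, with metabolite formation quantified by LC-MS/MS against a calibration curve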
[2] = target: BACE1 (Aβ40 in HEK293-APPswe/lon cells) (Homo sapiens (Human), UniProt P56817); experiment: BACE Inhibitor Whole Cell IC50 Determination Using HEK293-APPswe/lon Cells (Aβ40); assay type: cell-based; settings: 4 hours
[3] = target: soluble human BACE1 catalytic domain (Homo sapiens (Human), UniProt P56817); experiment: BACE1 HTRF FRET Assay; assay type: biochemical; settings: Ki calculated from IC50 with Cheng-Prusoff equation;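 further: cleavage of a quenched APP Swedish mutant peptide (QSY7 quencher, Europium donor) measured as rise in 620 nm fluorescence after 1.5 h at 30 °C, inhibition suppresses signal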
human liver Cathepsin D = human liver Cathepsin D (Homo sapiens (Human), UniProt P07339); experiment: Human Cathepsin D FRET Assay; assay type: biochemical; settings: selectivity with respect to Cathepsin D vs BACE1
hERG [4] = target: T1, hERG; experiment: hERG screening, Rubidium Efflux (hERG-CHO cells); assay type: cell-based; settings: CHO cells expressing hERG; for inhibition at 30 min, 1.5 uG/mL: pH 7.4, 1.5 uG/mL, read-out: HERG Rb efflux % Inhib 1.5 uG/mL; for inhibition at 30 min, 5 uG/mL: pH 7.4, 5 uG/mL, read-out: HERG Rb efflux % Inhib 5 uG/mL
[5] = 30 min pre-incubation with NADPH, read-out: CYP 2D6 IC50 pre
[6] = co-incubation, read-out: CYP 2D6 IC50 co
[7] = 30 min pre-incubation with NADPH, read-out: CYP 3A4 IC50 pre
[8] = co-incubation, read-out: CYP 3A4 IC50 co
[9] = 30 min pre-incubation with NADPH, read-out: CYP 2C9 IC50 pre
[10] = co-incubation, read-out: CYP 2C9 IC50 co

T1 sequence (Q12809 whole entry): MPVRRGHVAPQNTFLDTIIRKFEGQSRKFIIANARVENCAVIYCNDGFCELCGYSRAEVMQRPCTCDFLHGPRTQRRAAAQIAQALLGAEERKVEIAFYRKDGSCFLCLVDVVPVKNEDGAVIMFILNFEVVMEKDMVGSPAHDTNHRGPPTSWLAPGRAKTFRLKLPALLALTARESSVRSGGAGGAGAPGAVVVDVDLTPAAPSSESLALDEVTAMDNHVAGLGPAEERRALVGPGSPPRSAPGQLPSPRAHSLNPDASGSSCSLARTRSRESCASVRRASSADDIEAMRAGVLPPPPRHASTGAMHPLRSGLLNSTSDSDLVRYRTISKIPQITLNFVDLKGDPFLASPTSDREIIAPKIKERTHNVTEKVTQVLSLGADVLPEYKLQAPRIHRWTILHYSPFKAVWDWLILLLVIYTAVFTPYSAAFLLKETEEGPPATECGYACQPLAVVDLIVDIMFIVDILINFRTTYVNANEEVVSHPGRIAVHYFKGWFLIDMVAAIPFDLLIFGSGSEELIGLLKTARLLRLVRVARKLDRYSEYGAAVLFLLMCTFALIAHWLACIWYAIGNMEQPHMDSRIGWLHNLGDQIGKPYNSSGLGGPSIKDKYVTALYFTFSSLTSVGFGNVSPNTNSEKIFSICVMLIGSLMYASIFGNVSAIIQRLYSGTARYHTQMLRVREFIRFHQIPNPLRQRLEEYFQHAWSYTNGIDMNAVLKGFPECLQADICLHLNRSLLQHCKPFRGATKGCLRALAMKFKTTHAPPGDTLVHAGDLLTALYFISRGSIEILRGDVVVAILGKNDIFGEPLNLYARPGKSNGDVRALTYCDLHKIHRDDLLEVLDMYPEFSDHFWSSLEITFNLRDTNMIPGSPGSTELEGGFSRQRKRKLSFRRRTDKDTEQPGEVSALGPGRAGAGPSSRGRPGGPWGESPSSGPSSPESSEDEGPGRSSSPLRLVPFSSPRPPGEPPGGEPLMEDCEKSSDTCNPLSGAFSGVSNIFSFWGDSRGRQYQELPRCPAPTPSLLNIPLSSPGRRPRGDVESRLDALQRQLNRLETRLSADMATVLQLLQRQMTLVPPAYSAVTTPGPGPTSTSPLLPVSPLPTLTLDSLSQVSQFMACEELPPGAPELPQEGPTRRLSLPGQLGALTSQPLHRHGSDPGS
Sequence of CYP2D6 (P10635 whole entry): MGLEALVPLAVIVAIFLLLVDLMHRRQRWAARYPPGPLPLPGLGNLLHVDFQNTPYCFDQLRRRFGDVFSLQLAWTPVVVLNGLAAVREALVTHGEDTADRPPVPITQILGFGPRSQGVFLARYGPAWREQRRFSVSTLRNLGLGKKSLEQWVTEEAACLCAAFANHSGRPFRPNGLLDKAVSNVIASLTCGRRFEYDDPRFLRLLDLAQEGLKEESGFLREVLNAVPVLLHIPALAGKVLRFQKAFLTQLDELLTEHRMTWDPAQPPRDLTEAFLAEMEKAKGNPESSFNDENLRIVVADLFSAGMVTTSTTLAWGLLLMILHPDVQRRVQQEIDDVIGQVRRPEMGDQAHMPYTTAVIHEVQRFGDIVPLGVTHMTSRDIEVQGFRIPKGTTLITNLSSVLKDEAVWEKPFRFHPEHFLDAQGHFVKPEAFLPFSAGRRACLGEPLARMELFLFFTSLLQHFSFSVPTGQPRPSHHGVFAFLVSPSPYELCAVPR
Sequence of CYP3A4 (P08684 whole entry): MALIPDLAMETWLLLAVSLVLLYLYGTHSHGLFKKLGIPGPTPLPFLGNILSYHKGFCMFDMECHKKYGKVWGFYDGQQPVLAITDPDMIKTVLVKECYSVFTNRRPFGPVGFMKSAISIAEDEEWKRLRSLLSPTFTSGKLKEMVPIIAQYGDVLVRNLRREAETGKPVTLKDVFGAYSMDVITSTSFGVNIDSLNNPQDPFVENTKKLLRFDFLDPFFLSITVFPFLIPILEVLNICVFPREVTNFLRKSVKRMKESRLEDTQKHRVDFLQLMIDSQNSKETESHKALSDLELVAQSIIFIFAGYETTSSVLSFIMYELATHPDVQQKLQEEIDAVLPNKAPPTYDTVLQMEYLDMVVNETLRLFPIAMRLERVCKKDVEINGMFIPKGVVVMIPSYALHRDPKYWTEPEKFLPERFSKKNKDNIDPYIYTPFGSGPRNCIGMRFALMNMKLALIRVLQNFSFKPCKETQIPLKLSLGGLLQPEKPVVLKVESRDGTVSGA
Sequence of CYP2C9 (P11712 whole entry): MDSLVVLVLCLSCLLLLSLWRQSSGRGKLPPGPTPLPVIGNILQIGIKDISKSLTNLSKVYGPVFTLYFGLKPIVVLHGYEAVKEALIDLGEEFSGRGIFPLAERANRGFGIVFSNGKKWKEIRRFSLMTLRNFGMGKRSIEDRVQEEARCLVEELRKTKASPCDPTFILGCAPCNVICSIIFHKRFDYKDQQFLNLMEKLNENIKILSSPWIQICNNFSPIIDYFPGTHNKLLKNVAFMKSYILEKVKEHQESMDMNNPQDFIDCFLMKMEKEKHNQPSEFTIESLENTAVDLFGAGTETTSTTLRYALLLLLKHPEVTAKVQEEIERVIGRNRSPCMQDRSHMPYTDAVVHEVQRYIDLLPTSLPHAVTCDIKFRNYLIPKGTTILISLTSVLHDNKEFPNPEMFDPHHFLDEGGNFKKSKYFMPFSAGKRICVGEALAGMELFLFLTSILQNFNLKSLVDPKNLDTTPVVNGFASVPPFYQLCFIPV
Sequence of soluble human BACE1 catalytic domain (P56817 75-416): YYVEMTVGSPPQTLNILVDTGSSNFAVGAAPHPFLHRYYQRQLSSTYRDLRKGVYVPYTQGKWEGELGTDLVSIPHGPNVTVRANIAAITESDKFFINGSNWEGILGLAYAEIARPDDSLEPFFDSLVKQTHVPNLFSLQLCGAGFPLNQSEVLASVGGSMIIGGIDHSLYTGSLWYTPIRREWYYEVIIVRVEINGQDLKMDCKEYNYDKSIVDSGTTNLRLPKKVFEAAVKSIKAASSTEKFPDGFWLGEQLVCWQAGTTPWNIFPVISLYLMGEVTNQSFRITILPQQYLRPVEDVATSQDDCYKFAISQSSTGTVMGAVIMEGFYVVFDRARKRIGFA
Sequence of BACE1 (Aβ40 in HEK293-APPswe/lon cells) (P56817 46-501): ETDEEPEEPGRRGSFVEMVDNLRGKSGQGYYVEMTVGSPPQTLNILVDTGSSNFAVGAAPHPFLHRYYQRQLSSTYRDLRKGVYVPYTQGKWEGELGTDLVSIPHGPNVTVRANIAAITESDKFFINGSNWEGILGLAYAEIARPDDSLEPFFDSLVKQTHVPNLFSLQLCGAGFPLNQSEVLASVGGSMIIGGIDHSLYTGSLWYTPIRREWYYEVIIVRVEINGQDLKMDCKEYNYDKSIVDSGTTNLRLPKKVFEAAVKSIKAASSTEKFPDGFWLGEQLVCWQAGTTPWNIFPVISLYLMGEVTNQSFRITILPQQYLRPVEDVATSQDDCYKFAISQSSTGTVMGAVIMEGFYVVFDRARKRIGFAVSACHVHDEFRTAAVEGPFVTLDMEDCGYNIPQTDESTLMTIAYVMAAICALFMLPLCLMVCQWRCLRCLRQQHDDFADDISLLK
Sequence of human liver Cathepsin D (P07339 65-412): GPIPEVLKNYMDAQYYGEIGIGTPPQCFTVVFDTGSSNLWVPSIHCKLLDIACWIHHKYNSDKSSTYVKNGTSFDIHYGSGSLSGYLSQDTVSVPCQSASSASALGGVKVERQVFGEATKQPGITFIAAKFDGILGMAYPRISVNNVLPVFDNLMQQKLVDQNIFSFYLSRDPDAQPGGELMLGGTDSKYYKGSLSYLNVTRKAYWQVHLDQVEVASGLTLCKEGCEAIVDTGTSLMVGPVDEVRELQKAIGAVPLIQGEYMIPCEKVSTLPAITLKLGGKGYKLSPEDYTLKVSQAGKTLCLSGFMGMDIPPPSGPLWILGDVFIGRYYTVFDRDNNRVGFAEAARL
Sequence of human liver Cathepsin D (P07339 169-412): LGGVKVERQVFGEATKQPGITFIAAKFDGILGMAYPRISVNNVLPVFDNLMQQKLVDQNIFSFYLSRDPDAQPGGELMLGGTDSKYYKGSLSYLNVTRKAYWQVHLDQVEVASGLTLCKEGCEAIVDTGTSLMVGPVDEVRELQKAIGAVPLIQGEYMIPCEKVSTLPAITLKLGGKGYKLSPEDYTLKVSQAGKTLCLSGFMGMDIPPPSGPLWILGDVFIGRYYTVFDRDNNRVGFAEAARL

SMILES	IC50 (CYP2D6; [5])	IC50 (CYP2D6; [6])	IC50 (CYP3A4; [7])	IC50 (CYP3A4; [8])	inhibition at 5 min, 1 uM (hERG [1])	inhibition at 5 min, 10 uM (hERG [1])	IC50 (CYP2C9; [9])	IC50 (CYP2C9; [10])	IC50 [2]	Ki [3]	CathD Selectivity (human liver Cathepsin D)	inhibition at 30 min, 1.5 uG/mL (hERG [4])	inhibition at 30 min, 5 uG/mL (hERG [4])
CCc1nc(N2C[C@H]3C(=O)N(C)C(=N)N[C@@]3(c3cc(F)ccc3F)C2)nc(OC)c1F [Example 31]	> 20 µM	> 20 µM	> 20 µM	> 20 µM	21%	88%	> 20 µM	> 20 µM	0.031 µM	0.0069 µM	596		
COc1nc(N2C[C@H]3C(=O)N(C)C(=N)N[C@@]3(c3cc(F)ccc3F)C2)nc(C2CC2)c1Cl [Example 35]	> 20 µM	> 20 µM	~20 µM	> 20 µM	5%	23%	~20 µM	~20 µM	0.09 µM	0.0065 µM	634		
COc1nc(N2C[C@H]3C(=O)N(C)C(N)=N[C@@]3(c3c(F)cc(F)c(F)c3F)C2)nc(C)c1F [Example 29]	> 30 µM	> 30 µM					> 30 µM	> 30 µM				-4%	3%
COc1nc(N2C[C@H]3C(=O)N(C)C(=N)N[C@@]3(c3ccc(F)cc3F)C2)nc(CO)c1F [Example 43]	> 20 µM	> 20 µM	> 20 µM	> 20 µM	6%	27%	> 20 µM	> 20 µM	0.021 µM	0.016 µM	116		
Cc1nc(N2C[C@H]3C(=O)N(C)C(=N)N[C@@]3(c3ccc(F)cc3)C2)nc(C)c1F [Example 28]	~30 µM	23.3 µM	> 30 µM	> 30 µM			> 30 µM	> 30 µM	0.114 µM	0.064 µM		13%	14%
CCc1nc(N2C[C@H]3C(=O)N(C)C(=N)N[C@@]3(c3ccc(F)cc3)C2)nc(OC)c1F [Example 30]	> 30 µM	> 30 µM	> 30 µM	> 30 µM	2%	31%	> 30 µM	> 30 µM	0.022 µM	0.0061 µM	163		
COc1nc(N2C[C@H]3C(=O)N(C)C(=N)N[C@@]3(c3ccc(F)cc3)C2)nc(C2CC2)c1F [Example 21]	10.1 µM	13.7 µM	> 20 µM	> 20 µM	7%	73%	> 20 µM	> 20 µM	0.05 µM	0.0048 µM	50		
CCc1nc(N2C[C@H]3C(=O)N(C)C(=N)N[C@@]3(c3cc(F)c(F)cc3F)C2)nc(OC)c1F [Example 22]	> 20 µM	> 20 µM	> 20 µM	> 20 µM	35%	96%	> 20 µM	~20 µM	0.018 µM	0.0056 µM	53		
COc1nc(N2C[C@H]3C(=O)N(C)C(=N)N[C@@]3(c3cc(F)ccc3F)C2)nc(C2CC2)c1F [Example 34]	> 20 µM	> 20 µM	> 20 µM	> 20 µM	7%	65%	> 20 µM	> 20 µM	0.086 µM	0.0056 µM	88		
COc1nc(N2C[C@H]3C(=O)N(C)C(=N)N[C@@]3(c3ccc(F)cc3F)C2)nc(C2CC2)c1Cl [Example 19]	> 20 µM	> 20 µM	> 20 µM	> 20 µM	3%	20%	> 20 µM	> 20 µM	0.117 µM	0.0068 µM	236		
COc1nc(N2C[C@H]3C(=O)N(C)C(=N)N[C@@]3(c3ccc(F)cc3F)C2)nc(C2CC2)c1F [Example 38]	> 20 µM	> 20 µM	> 20 µM	> 20 µM	12%	63%	> 20 µM	> 20 µM	0.031 µM	0.0027 µM	209		
COc1nc(N2C[C@H]3C(=O)N(C)C(=N)N[C@@]3(c3ccc(F)cc3F)C2)nc(OC)c1F [Example 10]	> 30 µM	~30 µM	> 30 µM	> 30 µM	7%	74%	> 30 µM	> 30 µM	0.0075 µM	0.0018 µM	583		
COc1nc(N2C[C@H]3C(=O)N(C)C(=N)N[C@@]3(c3cccc(C#N)c3)C2)nc(C)c1F [Example 36]	> 20 µM	> 20 µM	> 20 µM	> 20 µM	3%	37%	> 20 µM	> 20 µM	0.063 µM	0.014 µM	1202		
COc1nc(N2C[C@H]3C(=O)N(C)C(=N)N[C@@]3(c3ccc(F)cc3)C2)nc(OC)c1F [Example 27]	~30 µM	14.7 µM	4.2 µM	> 30 µM	2%	51%	> 30 µM	> 30 µM	0.0615 µM	0.0044 µM	1063		
